Numbered stars: 1 amine (or outer) side, 2 acyl side, 3 side chain; on linkers, the order of the positions; unused ones are H or OH. Square brackets hold non-standard residues; d marks the D form. Side chains are listed from the residue outwards. Peptide text beside a SMILES is read from it. * marks the point of attachment. γGlu = O=C(O)[C@H](CCC(=O)[*:2])N[*:1]; Palmitoyl = CCCCCCCCCCCCCCCC(=O)*; Aib = CC(C)(N)C(=O)O

T1 sequence (P43220 24-463): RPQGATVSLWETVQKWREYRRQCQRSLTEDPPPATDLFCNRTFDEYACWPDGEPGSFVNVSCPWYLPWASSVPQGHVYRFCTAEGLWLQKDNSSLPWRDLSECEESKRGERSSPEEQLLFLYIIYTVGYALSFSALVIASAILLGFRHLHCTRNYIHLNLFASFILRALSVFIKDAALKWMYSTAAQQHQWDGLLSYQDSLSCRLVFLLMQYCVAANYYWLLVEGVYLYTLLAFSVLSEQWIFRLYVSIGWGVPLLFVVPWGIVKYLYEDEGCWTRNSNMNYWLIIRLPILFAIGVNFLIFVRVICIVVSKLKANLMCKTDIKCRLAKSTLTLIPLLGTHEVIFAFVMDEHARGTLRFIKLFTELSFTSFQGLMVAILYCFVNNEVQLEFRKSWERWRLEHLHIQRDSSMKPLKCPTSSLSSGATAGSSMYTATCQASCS

The assay has as its target T1, human GLP-1 R (Homo sapiens, UniProt P43220).
T1 construct: expressed in transfected cells
The experiment in a line: Human GLP-1 receptor (GLP-1 R) activity assay, cAMP induction (AlphaScreen cAMP kit). The following applies: HEK293 cells expressing the human GLP-1 R, 15 min at 37° C., average values of multiple determinations, read-out: GLP1 R (EC50 in nM). The class given is cell-based. As for the experimental part:
Human GIP Receptor (GIP R) and GLP-1 Receptor (GLP-1 R) Activity Assay
In vitro effects of peptide conjugates of the invention were assessed by measuring the induction of cAMP following stimulation of the respective receptor by GIP, GLP1 or analogues of these, as outlined in the invention, using the AlphaSceen® cAMP kit from Perkin-Elmer according to instructions. Briefly. HEK293 cells expressing the human GIP R or GLP-1 R (stable cell lines generated through transfection of the cDNA for human GIP R or GLP-1 and selection of stable clones) were seeded at 30,000 cells/well in 96-well microtiter plates coated with 0.01% poly-L-lysine, and grown for 1 day in culture in 200 μl growth medium (DMEM, 10% FCS, Penicillin (100 IU/ml), Streptomycin (100 μg/ml)). On the day of analysis, growth medium was removed and the cells were washed once with […] Tyrode's buffer (Tyrode's Salts (9.6 g/1), 10 mM HEPES, pH 7.4). […] The Assay buffer was removed and cells are lysed in 80 μl Lysis buffer (0.1% w/v BSA, 5 mM HEPES, 0.3% v/v Tween-20) per well. From each well 10 μl lysed cells was transferred to a 384-well plate and mixed with 15 μl bead-mix (1 Unit/15 μl anti-cAMP Acceptor Beads, 1 Unit/15 μl Donor Beads, and 1 Unit/15 μl Biotinylated cAMP in Assay Buffer). The plates were mixed and incubated in the dark for an hour at room temperature before measuring using an Envision™ plate reader (Perkin-Elmer).
A word on the EC50: it is the midpoint of the concentration-response curve. On to `CC[C@H](C)[C@H](NC(=O)[C@H](CO)NC(=O)[C@H](Cc1ccc(O)cc1)NC(=O)[C@H](CC(=O)O)NC(=O)[C@H](CO)NC(=O)[C@@H](NC(=O)[C@H](Cc1ccccc1)NC(=O)[C@@H](NC(=O)CNC(=O)[C@H](CCC(=O)O)NC(=O)C(C)(C)NC(=O)[C@@H](N)Cc1ccc(O)cc1)[C@@H](C)O)[C@@H](C)O)C(=O)N[C@@H](Cc1ccc(O)cc1)C(=O)N[C@@H](CC(C)C)C(=O)N[C@@H](CCC(=O)O)C(=O)N[C@@H](CCCCN)C(=O)N[C@@H](CCCCN)C(=O)N[C@@H](C)C(=O)N[C@@H](CCC(N)=O)C(=O)N[C@@H](CCCNC(=N)N)C(=O)N[C@@H](C)C(=O)N[C@@H](Cc1ccccc1)C(=O)N[C@H](C(=O)N[C@@H](CC(N)=O)C(=O)N[C@@H](Cc1c[nH]c2ccccc12)C(=O)N[C@@H](CC(C)C)C(=O)N[C@@H](CC(C)C)C(=O)N[C@@H](C)C(=O)NC(C)(C)C(=O)N[C@@H](CCCCN)C(N)=O)C(C)C` [Compound 14] (H-Y[Aib]EGTFTSDYSIYLEKKAQRAFVNWLLA[Aib]K-NH2), for which the EC50 was 0.0087 nM.

As to `CC[C@H](C)[C@H](NC(=O)[C@H](CO)NC(=O)[C@H](Cc1ccc(O)cc1)NC(=O)[C@H](CC(=O)O)NC(=O)[C@H](CO)NC(=O)[C@@H](NC(=O)[C@H](Cc1ccccc1)NC(=O)[C@@H](NC(=O)CNC(=O)[C@H](CCC(=O)O)NC(=O)C(C)(C)NC(=O)[C@@H](N)Cc1ccc(O)cc1)[C@@H](C)O)[C@@H](C)O)C(=O)N[C@@H](C)C(=O)N[C@@H](CC(C)C)C(=O)N[C@@H](CC(=O)O)C(=O)N[C@@H](CCCCN)C(=O)N[C@@H](CCCCN)C(=O)N[C@@H](C)C(=O)N[C@@H](CCC(N)=O)C(=O)N[C@@H](CCCNC(=N)N)C(=O)N[C@@H](C)C(=O)N[C@@H](Cc1ccccc1)C(=O)N[C@H](C(=O)N[C@@H](CC(N)=O)C(=O)N[C@@H](Cc1c[nH]c2ccccc12)C(=O)N[C@@H](CC(C)C)C(=O)N[C@@H](CC(C)C)C(=O)N[C@@H](C)C(=O)NC(C)(C)C(=O)N[C@@H](CCCCN)C(N)=O)C(C)C` [Compound 12] (H-Y[Aib]EGTFTSDYSIALDKKAQRAFVNWLLA[Aib]K-NH2), the EC50 is 0.01 nM.

As to `CCCCCCCCCCCCCCCC(=O)N[C@@H](CCC(=O)NCCCC[C@H](NC(=O)[C@H](CCC(=O)O)NC(=O)[C@H](CC(=O)O)NC(=O)[C@H](CC(C)C)NC(=O)[C@H](Cc1ccc(O)cc1)NC(=O)[C@@H](NC(=O)[C@H](CO)NC(=O)[C@H](Cc1ccc(O)cc1)NC(=O)[C@H](CC(=O)O)NC(=O)[C@H](CO)NC(=O)[C@@H](NC(=O)[C@H](Cc1ccccc1)NC(=O)[C@@H](NC(=O)CNC(=O)[C@H](CCC(=O)O)NC(=O)C(C)(C)NC(=O)[C@@H](N)Cc1ccc(O)cc1)[C@@H](C)O)[C@@H](C)O)[C@@H](C)CC)C(=O)N[C@@H](C)C(=O)N[C@@H](C)C(=O)N[C@@H](CCCCN)C(=O)N[C@@H](CC(=O)O)C(=O)N[C@@H](Cc1ccccc1)C(=O)N[C@H](C(=O)N[C@@H](CCC(=O)O)C(=O)N[C@@H](Cc1c[nH]c2ccccc12)C(=O)N[C@@H](CC(C)C)C(=O)N[C@@H](CCC(=O)O)C(=O)N[C@@H](CO)C(=O)N[C@@H](C)C(N)=O)C(C)C)C(=O)O` [Compound 48] (H-Y[Aib]EGTFTSDYSIYLDEK([γGlu-Palmitoyl])AAKDFVEWLESA-NH2), the EC50 is 0.041 nM. The same measure for `CC[C@H](C)[C@H](NC(=O)[C@H](CO)NC(=O)[C@H](Cc1ccc(O)cc1)NC(=O)[C@H](CC(=O)O)NC(=O)[C@H](CO)NC(=O)[C@@H](NC(=O)[C@H](Cc1ccccc1)NC(=O)[C@@H](NC(=O)CNC(=O)[C@H](CCC(=O)O)NC(=O)C(C)(C)NC(=O)[C@@H](N)Cc1ccc(O)cc1)[C@@H](C)O)[C@@H](C)O)C(=O)N[C@@H](Cc1ccc(O)cc1)C(=O)N[C@@H](CC(C)C)C(=O)N[C@@H](CC(=O)O)C(=O)N[C@@H](CCCCN)C(=O)N[C@@H](CCCCN)C(=O)N[C@@H](C)C(=O)N[C@@H](CCC(N)=O)C(=O)N[C@@H](CCCNC(=N)N)C(=O)N[C@@H](C)C(=O)N[C@@H](Cc1ccccc1)C(=O)N[C@H](C(=O)N[C@@H](CC(N)=O)C(=O)N[C@@H](Cc1c[nH]c2ccccc12)C(=O)N[C@@H](CC(C)C)C(=O)N[C@@H](CCCCN)C(=O)N[C@@H](C)C(=O)NC(C)(C)C(=O)N[C@@H](CCCCN)C(N)=O)C(C)C` [Compound 23] (H-Y[Aib]EGTFTSDYSIYLDKKAQRAFVNWLKA[Aib]K-NH2): 0.012 nM; for `CC[C@H](C)[C@H](NC(=O)[C@H](CO)NC(=O)[C@H](Cc1ccc(O)cc1)NC(=O)[C@H](CC(=O)O)NC(=O)[C@H](CO)NC(=O)[C@@H](NC(=O)[C@H](Cc1ccccc1)NC(=O)[C@@H](NC(=O)CNC(=O)[C@H](CCC(=O)O)NC(=O)C(C)(C)NC(=O)[C@@H](N)Cc1ccc(O)cc1)[C@@H](C)O)[C@@H](C)O)C(=O)NC(C)(C)C(=O)N[C@@H](CC(C)C)C(=O)N[C@@H](CC(=O)O)C(=O)N[C@@H](CCCCN)C(=O)N[C@@H](CCCCN)C(=O)N[C@@H](C)C(=O)N[C@@H](CCC(N)=O)C(=O)N[C@@H](CCCNC(=N)N)C(=O)N[C@@H](C)C(=O)N[C@@H](Cc1ccccc1)C(=O)N[C@H](C(=O)N[C@@H](CCC(=O)O)C(=O)N[C@@H](Cc1c[nH]c2ccccc12)C(=O)N[C@@H](CC(C)C)C(=O)N[C@@H](CC(C)C)C(=O)N[C@@H](C)C(=O)N[C@@H](CCC(N)=O)C(=O)NCC(=O)N1CCC[C@H]1C(=O)N[C@@H](CO)C(=O)N[C@@H](CO)C(=O)NCC(=O)N[C@@H](C)C(=O)N1CCC[C@H]1C(=O)N1CCC[C@H]1C(=O)N1CCC[C@H]1C(=O)N[C@@H](CO)C(N)=O)C(C)C` [Compound 2] (H-Y[Aib]EGTFTSDYSI[Aib]LDKKAQRAFVEWLLAQGPSSGAPPPS-NH2): 0.015 nM; for `CC[C@H](C)[C@H](NC(=O)[C@H](CO)NC(=O)[C@H](Cc1ccc(O)cc1)NC(=O)[C@H](CC(=O)O)NC(=O)[C@H](CO)NC(=O)[C@@H](NC(=O)[C@H](Cc1ccccc1)NC(=O)[C@@H](NC(=O)CNC(=O)[C@H](CCC(=O)O)NC(=O)C(C)(C)NC(=O)[C@@H](N)Cc1ccc(O)cc1)[C@@H](C)O)[C@@H](C)O)C(=O)N[C@@H](Cc1ccc(O)cc1)C(=O)N[C@@H](CC(C)C)C(=O)N[C@@H](CCC(=O)O)C(=O)N[C@@H](CCCCN)C(=O)N[C@@H](CCCCN)C(=O)N[C@@H](C)C(=O)N[C@@H](CCC(N)=O)C(=O)N[C@@H](CCCCN)C(=O)N[C@@H](CCC(=O)O)C(=O)N[C@@H](Cc1ccccc1)C(=O)N[C@H](C(=O)N[C@@H](CCC(=O)O)C(=O)N[C@@H](Cc1c[nH]c2ccccc12)C(=O)N[C@@H](CC(C)C)C(=O)N[C@@H](CC(C)C)C(=O)N[C@@H](CO)C(=O)N[C@@H](C)C(N)=O)C(C)C` [Compound 39] (H-Y[Aib]EGTFTSDYSIYLEKKAQKEFVEWLLSA-NH2): 0.011 nM.

Regarding `CC[C@H](C)[C@H](NC(=O)[C@H](CO)NC(=O)[C@H](Cc1ccc(O)cc1)NC(=O)[C@H](CC(=O)O)NC(=O)[C@H](CO)NC(=O)[C@@H](NC(=O)[C@H](Cc1ccccc1)NC(=O)[C@@H](NC(=O)CNC(=O)[C@H](CCC(=O)O)NC(=O)C(C)(C)NC(=O)[C@@H](N)Cc1ccc(O)cc1)[C@@H](C)O)[C@@H](C)O)C(=O)N[C@@H](Cc1ccc(O)cc1)C(=O)N[C@@H](CC(C)C)C(=O)N[C@@H](CCC(=O)O)C(=O)N[C@@H](CCCCN)C(=O)N[C@@H](CCCCN)C(=O)N[C@@H](C)C(=O)N[C@@H](C)C(=O)N[C@@H](CCCCN)C(=O)N[C@@H](CC(=O)O)C(=O)N[C@@H](Cc1ccccc1)C(=O)N[C@H](C(=O)N[C@@H](CCC(=O)O)C(=O)N[C@@H](Cc1c[nH]c2ccccc12)C(=O)N[C@@H](CC(C)C)C(=O)N[C@@H](CC(C)C)C(=O)N[C@@H](CO)C(=O)N[C@@H](C)C(N)=O)C(C)C` [Compound 37] (H-Y[Aib]EGTFTSDYSIYLEKKAAKDFVEWLLSA-NH2), the EC50 was 0.018 nM.

For the origin of these results see patent publication US10100097B2, “GIP-GLP-1 dual agonist compounds and methods” (Zealand Pharma A/S, priority 2012, dated 2018).
